# Results: US20150337013A1, “NOVEL ANTIBACTERIAL AGENTS FOR THE TREATMENT OF GRAM POSITIVE INFECTIONS” (priority 2008, published 2015)
# Several values for one entry are separate records, joined by “and”; a condition that tells them apart may be missing. Equal values may be shown once. Read-outs that look alike come from different tables or passages of the source.
# Legend:
# [1] = system: Enterococcus faecium EFM.14 (ATCC 6569); format: cell-based
# Summary of the method: (§1)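 CLSI M7-A7 broth microdilution, modified: MHB + 50 mg/L Ca, 5×10^5 bacteria/well, 2-fold dilutions, DMSO ≤1%, 18-20 h, 37° C, 200 rpm. Growth = visible turbidity or OD600 ≥0.1; MIC = lowest conc. without visible turbidity, μg/mL.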
# [2] = system: Staphylococcus aureus SAU.399 (ATCC 43300), Methicillin and Oxacillin Resistant; format: cell-based
# Summary of the method: as §1
# [3] = system: Enterococcus faecalis EFS.201 (ATCC 49452); format: cell-based
# Summary of the method: as §1
# [4] = system: Staphylococcus aureus SAU.42 (ATCC 29213); format: cell-based
# Summary of the method: as §1
# [5] = system: Enterococcus faecium EFM.384, Daptomycin resistant mutant (14-A); format: cell-based; conditions: MHBc with 50 mg/L calcium, 18-20 hours at 37° C.
# Summary of the method: as §1
# [6] = system: Enterococcus faecalis EFS.312, Daptomycin resistant mutant (EFA); format: cell-based; conditions: MHBc with 50 mg/L calcium, 18-20 hours at 37° C.
# Summary of the method: as §1
# [7] = system: Staphylococcus aureus SAU.278, Daptomycin resistant mutant (D10); format: cell-based; conditions: MHBc with 50 mg/L calcium, 18-20 hours at 37° C.
# Summary of the method: as §1
# [8] = system: Clostridium difficile
# [9] = MHBc with 50 mg/L calcium, 18-20 hours at 37° C.
Compound,Efm14 MIC ([1]; ATCC 6569),Sa399 MIC ([2]; ATCC 43300),Efs201 MIC ([3]; ATCC 49452),Sa42 MIC ([4]; ATCC 29213),Efm384 MIC [5],Efs312 MIC [6],Sa278 MIC [7],C. diff MIC90 [8],"Efm14 MIC [1, 9]","Sa399 MIC [2, 9]","Efs201 MIC [3, 9]","Sa42 MIC [4, 9]"
"CCCCCCCCC1CC1C(=O)N[C@@H](Cc1c[nH]c2ccccc12)C(=O)N[C@H](CC(N)=O)C(=O)N[C@@H](CC(=O)O)C(=O)N[C@@H]1C(=O)NCC(=O)N[C@@H](CCCN)C(=O)N[C@@H](CC(=O)O)C(=O)N[C@H](C)C(=O)N[C@@H](CC(=O)O)C(=O)NCC(=O)N[C@H](CO)C(=O)N[C@@H]([C@H](C)CC(=O)O)C(=O)N[C@@H](CC(=O)c2ccccc2N)C(=O)O[C@@H]1C (single isomer, unassigned) [27 isomer I]",4 µg/mL,2 µg/mL,2 µg/mL,2 µg/mL,32 µg/mL,32 µg/mL,8 µg/mL,2 µg/mL,–,–,–,–
C[C@H](CC(=O)O)[C@@H]1NC(=O)[C@@H](CO)NC(=O)CNC(=O)[C@H](CC(=O)O)NC(=O)[C@@H](C)NC(=O)[C@H](CC(=O)O)NC(=O)[C@H](CCCN)NC(=O)CNC(=O)[C@@H](NC(=O)[C@H](CC(=O)O)NC(=O)[C@@H](CC(N)=O)NC(=O)[C@H](Cc2c[nH]c3ccccc23)NC(=O)C2(c3ccc(Cl)cc3)CCCCC2)[C@@H](C)OC(=O)[C@H](CC(=O)c2ccccc2N)NC1=O [Compound 72],>32 µg/mL,>32 µg/mL,>32 µg/mL,>32 µg/mL,>32 µg/mL,>32 µg/mL,>32 µg/mL,32 µg/mL,–,–,–,–
"CCCCCCCCCC(=O)N[C@@H](Cc1c[nH]c2ccccc12)C(=O)N[C@H](CC(N)=O)C(=O)N[C@@H](CC(=O)O)C(=O)N[C@@H]1C(=O)NCC(=O)N[C@@H](CCCN)C(=O)N[C@@H](CC(=O)O)C(=O)N[C@H](C)C(=O)N[C@@H](CC(=O)O)C(=O)NCC(=O)N[C@H](CO)C(=O)N[C@@H]([C@H](C)CC(=O)O)C(=O)N[C@@H](CC(=O)c2ccccc2N)C(=O)O[C@@H]1C [Daptomycin, reference compound]",4 µg/mL,0.5 µg/mL,2 µg/mL,0.5 µg/mL,>32 µg/mL,>32 µg/mL,8 µg/mL,2 µg/mL,–,–,–,–
CCCCCCCCCCCCCCC(=O)N[C@@H](Cc1c[nH]c2ccccc12)C(=O)N[C@H](CC(N)=O)C(=O)N[C@@H](CC(=O)O)C(=O)N[C@@H]1C(=O)NCC(=O)N[C@@H](CCCN)C(=O)N[C@@H](CC(=O)O)C(=O)N[C@H](C)C(=O)N[C@@H](CC(=O)O)C(=O)NCC(=O)N[C@H](CO)C(=O)N[C@@H]([C@H](C)CC(=O)O)C(=O)N[C@@H](CC(=O)c2ccccc2N)C(=O)O[C@@H]1C [Compound 7],0.5 µg/mL,0.5 µg/mL,0.25 µg/mL,1 µg/mL,4 µg/mL,4 µg/mL,2 µg/mL,16 µg/mL,–,–,–,–
C[C@H](CC(=O)O)[C@@H]1NC(=O)[C@@H](CO)NC(=O)CNC(=O)[C@H](CC(=O)O)NC(=O)[C@@H](C)NC(=O)[C@H](CC(=O)O)NC(=O)[C@H](CCCN)NC(=O)CNC(=O)[C@@H](NC(=O)[C@H](CC(=O)O)NC(=O)[C@@H](CC(N)=O)NC(=O)[C@H](Cc2c[nH]c3ccccc23)NC(=O)c2ccc(-c3ccc(-c4ccccc4)cc3)cc2)[C@@H](C)OC(=O)[C@H](CC(=O)c2ccccc2N)NC1=O [Compound 69],–,–,–,–,4 µg/mL,32 µg/mL,0.125 µg/mL,2 µg/mL,0.5 µg/mL,0.125 µg/mL,0.5 µg/mL,0.125 µg/mL
"C[C@H](CC(=O)O)[C@@H]1NC(=O)[C@@H](CO)NC(=O)CNC(=O)[C@H](CC(=O)O)NC(=O)[C@@H](C)NC(=O)[C@H](CC(=O)O)NC(=O)[C@H](CCCN)NC(=O)CNC(=O)[C@@H](NC(=O)[C@H](CC(=O)O)NC(=O)[C@@H](CC(N)=O)NC(=O)[C@H](Cc2c[nH]c3ccccc23)NC(=O)c2ccc(-c3ccc(-c4ccccc4)cc3)s2)[C@@H](C)OC(=O)[C@H](CC(=O)c2ccccc2N)NC1=O [Compound 52, N-[5-(biphenyl-4-yl)thiophene-2-carbonyl]-L-tryptophyl-D-asparaginyl-L-α-aspartyl-L-threonylglycyl-L-ornithyl-L-α-aspartyl-D-alanyl-L-α-aspartylglycyl-D-seryl-(3R)-3-methyl-L-α-glutamyl-(αS)-α,2-diamino-γ-oxobenzenebutanoic acid (13→4)-lactone]",–,–,–,–,4 µg/mL,8 µg/mL and 16 µg/mL,0.5 µg/mL,2 µg/mL,1 µg/mL and 0.5 µg/mL,0.25 µg/mL,0.5 µg/mL,0.25 µg/mL
"CCCCCCCc1csc(C(=O)N[C@@H](Cc2c[nH]c3ccccc23)C(=O)N[C@H](CC(N)=O)C(=O)N[C@@H](CC(=O)O)C(=O)N[C@@H]2C(=O)NCC(=O)N[C@@H](CCCN)C(=O)N[C@@H](CC(=O)O)C(=O)N[C@H](C)C(=O)N[C@@H](CC(=O)O)C(=O)NCC(=O)N[C@H](CO)C(=O)N[C@@H]([C@H](C)CC(=O)O)C(=O)N[C@@H](CC(=O)c3ccccc3N)C(=O)O[C@@H]2C)c1 [Compound 43, N-(4-heptylthiophene-2-carbonyl)-L-tryptophyl-D-asparaginyl-L-α-aspartyl-L-threonylglycyl-L-ornithyl-L-α-aspartyl-D-alanyl-L-α-aspartylglycyl-D-seryl-(3R)-3-methyl-L-α-glutamyl-(αS)-α,2-diamino-γ-oxobenzenebutanoic acid (13→4)-lactone]",1 µg/mL,0.5 µg/mL,1 µg/mL,0.125 µg/mL,16 µg/mL,32 µg/mL,1 µg/mL,2 µg/mL,–,–,–,–
CCCCCCCc1ccc(NC(=O)N[C@@H](Cc2c[nH]c3ccccc23)C(=O)N[C@H](CC(N)=O)C(=O)N[C@@H](CC(=O)O)C(=O)N[C@@H]2C(=O)NCC(=O)N[C@@H](CCCN)C(=O)N[C@@H](CC(=O)O)C(=O)N[C@H](C)C(=O)N[C@@H](CC(=O)O)C(=O)NCC(=O)N[C@H](CO)C(=O)N[C@@H]([C@H](C)CC(=O)O)C(=O)N[C@@H](CC(=O)c3ccccc3N)C(=O)O[C@@H]2C)cc1 [Compound 51],0.5 µg/mL,0.125 µg/mL,0.25 µg/mL,0.125 µg/mL,4 µg/mL,8 µg/mL,1 µg/mL,0.5 µg/mL,–,–,–,–
C[C@H](CC(=O)O)[C@@H]1NC(=O)[C@@H](CO)NC(=O)CNC(=O)[C@H](CC(=O)O)NC(=O)[C@@H](C)NC(=O)[C@H](CC(=O)O)NC(=O)[C@H](CCCN)NC(=O)CNC(=O)[C@@H](NC(=O)[C@H](CC(=O)O)NC(=O)[C@@H](CC(N)=O)NC(=O)[C@H](Cc2c[nH]c3ccccc23)NC(=O)CCCCCC2CCCCC2)[C@@H](C)OC(=O)[C@H](CC(=O)c2ccccc2N)NC1=O [Compound 26],2 µg/mL,0.5 µg/mL,1 µg/mL,1 µg/mL,16 µg/mL,>32 µg/mL,2 µg/mL,2 µg/mL,–,–,–,–
"CCCCCCCCCC(C)NC(=O)N[C@@H](Cc1c[nH]c2ccccc12)C(=O)N[C@H](CC(N)=O)C(=O)N[C@@H](CC(=O)O)C(=O)N[C@@H]1C(=O)NCC(=O)N[C@@H](CCCN)C(=O)N[C@@H](CC(=O)O)C(=O)N[C@H](C)C(=O)N[C@@H](CC(=O)O)C(=O)NCC(=O)N[C@H](CO)C(=O)N[C@@H]([C@H](C)CC(=O)O)C(=O)N[C@@H](CC(=O)c2ccccc2N)C(=O)O[C@@H]1C (single isomer, unassigned) [14 isomer I]",0.5 µg/mL,0.5 µg/mL,1 µg/mL,0.25 µg/mL,8 µg/mL,32 µg/mL,1 µg/mL,1.0 µg/mL,–,–,–,–
CCCCCCCCCCC(=O)N[C@@H](Cc1c[nH]c2ccccc12)C(=O)N[C@H](CC(N)=O)C(=O)N[C@@H](CC(=O)O)C(=O)N[C@@H]1C(=O)NCC(=O)N[C@@H](CCCN)C(=O)N[C@@H](CC(=O)O)C(=O)N[C@H](C)C(=O)N[C@@H](CC(=O)O)C(=O)NCC(=O)N[C@H](CO)C(=O)N[C@@H]([C@H](C)CC(=O)O)C(=O)N[C@@H](CC(=O)c2ccccc2N)C(=O)O[C@@H]1C [Compound 2],2 µg/mL,0.5 µg/mL,2 µg/mL,2 µg/mL,>32 µg/mL,32 µg/mL,8 µg/mL,4 µg/mL,–,–,–,–
